From patent US9650395B2, “Antibacterial compounds and methods for use” (PTC Therapeutics, Inc., priority 2011, dated 2017)
Converted amounts (≈) assume the structure as drawn.

Key:
[1] = test system: super sensitive Gram-negative Escherichia coli (E. coli) BAS849; experiment: Antibacterial activity, microbroth dilution MIC, E. coli BAS849; type: cell-based; conditions: Escherichia coli; E. coli BAS849, microbroth dilution; read-out: MIC, BAS849
[2] = test system: Gram-positive Staphylococcus aureus (S. aureus) 29213; experiment: Antibacterial activity, microbroth dilution MIC, S. aureus 29213; type: cell-based; conditions: Staphylococcus aureus; S. aureus 29213, microbroth dilution; read-out: MIC, 29213
[3] = test system: Haemophilus influenzae (H. influenzae) 49247; experiment: Antibacterial activity, MIC, H. influenzae 49247; type: cell-based; conditions: Haemophilus influenzae; H. influenzae 49247; read-out: MIC 49247
Text: (§1) The antibacterial activity from a microbroth dilution method may be presented as the minimum inhibitory concentration (MIC in […]). The MIC value is the lowest concentration of a drug which prevents macroscopically visible bacterial growth under test conditions.
Antibacterial activity of test compounds against the Gram-negative bacteria Haemophilus influenzae (H. influenzae) 49247, Moraxella catarrhalis (M. catarrhalis) 25238 and Neisseria meningitidis (N. meningitidis) 13090 is shown in Table 6.

[4] = test system: Moraxella catarrhalis (M. catarrhalis) 25238; experiment: Antibacterial activity, MIC, M. catarrhalis 25238; type: cell-based; conditions: Moraxella catarrhalis, M. catarrhalis 25238; read-out: MIC 25238
[5] = test system: Neisseria meningitidis (N. meningitidis) 13090; experiment: Antibacterial activity, MIC, N. meningitidis 13090; type: cell-based; conditions: Neisseria meningitidis; N. meningitidis 13090; read-out: MIC 13090
[6] = test system: control Gram-negative E. coli 25922 strain; experiment: Antibacterial activity, microbroth dilution MIC, E. coli 25922; type: cell-based, Escherichia coli; conditions: Escherichia coli; E. coli 25922, microbroth dilution; read-out: MIC, 25922
[7] = test system: quinolone resistant E. coli LZ3111; experiment: Antibacterial activity, MIC, quinolone resistant E. coli LZ3111; type: cell-based, Escherichia coli; conditions: Escherichia coli, read-out: MIC, LZ3111
Text: as §1
Mutations in these regions are known to confer a high level resistance to the quinolone class of antibiotics.

[8] = test system: E. coli ELZ4000 (MDR clinical isolate); experiment: Antibacterial activity, MIC, MDR E. coli ELZ4000; type: cell-based, Escherichia coli; conditions: Escherichia coli; E. coli ELZ4000, MDR clinical isolate; read-out: MIC ELZ4000
[9] = test system: E. coli ELZ4251 (MDR clinical isolate); experiment: Antibacterial activity, MIC, MDR E. coli ELZ4251; type: cell-based, Escherichia coli; conditions: Escherichia coli, E. coli ELZ4251, MDR clinical isolate; read-out: MIC ELZ4251

Row | SMILES | MIC [1] [µg/mL] | MIC [2] [µg/mL] | MIC [3] [µg/mL] | MIC [4] [µg/mL] | MIC [5] [µg/mL] | MIC [6] [µg/mL] | MIC [7] [µg/mL] | MIC [8] [µg/mL] | MIC [9] [µg/mL]
1 | CN(C)c1ccc(-c2[nH]c(=O)c(C(=O)O)cc2Cc2ccccc2)cc1 [Cpd 1, 5-benzyl-6-[4-(dimethylamino)phenyl]-2-oxo-1,2-dihydropyridine-3-carboxylic acid] | 12.5 to 150 (≈ 35.9 to 431 µM) | 12.5 to 150 (≈ 35.9 to 431 µM) | < 1 | 3.5 to 12.5 (≈ 10 to 35.9 µM) | 3.5 to 12.5 (≈ 10 to 35.9 µM) |  |  |  | 
2 | CN(C)c1ccc(-c2[nH]c(=O)c(C(=O)O)c(O)c2Cc2ccccc2)cc1 [Cpd 2, 5-benzyl-6-[4-(dimethylamino)phenyl]-4-hydroxy-2-oxo-1,2-dihydropyridine-3-carboxylic acid] | 12.5 to 150 (≈ 34.3 to 412 µM) | 3.5 to 12.5 (≈ 9.6 to 34.3 µM) | < 1 | < 1 | < 1 | 12.5 to 150 (≈ 34.3 to 412 µM) |  |  | 
3 | CCc1cc(C(=O)O)c(=O)[nH]c1-c1ccc(N)cc1 [Cpd 3, 6-(4-aminophenyl)-5-ethyl-2-oxo-1,2-dihydropyridine-3-carboxylic acid] | < 1 | 12.5 to 150 (≈ 48.4 to 581 µM) |  | < 1 | < 1 | 3.5 to 12.5 (≈ 13.6 to 48.4 µM) | 12.5 to 150 (≈ 48.4 to 581 µM) | 12.5 to 150 (≈ 48.4 to 581 µM) | 12.5 to 150 (≈ 48.4 to 581 µM)
4 | CN(C)c1ccc(-c2[nH]c(=O)c(C(=O)O)cc2C2CCCCC2)cc1 [Cpd 6, 5-cyclohexyl-6-[4-(dimethylamino)phenyl]-2-oxo-1,2-dihydropyridine-3-carboxylic acid] | 3.5 to 12.5 (≈ 10.3 to 36.7 µM) | 12.5 to 150 (≈ 36.7 to 441 µM) | < 1 | 3.5 to 12.5 (≈ 10.3 to 36.7 µM) | < 1 | 12.5 to 150 (≈ 36.7 to 441 µM) |  |  | 
5 | CN(C)c1ccc(-c2[nH]c(=O)c(C(=O)O)c(O)c2C2CCCCC2)cc1 [Cpd 7, 5-cyclohexyl-6-[4-(dimethylamino)phenyl]-4-hydroxy-2-oxo-1,2-dihydropyridine-3-carboxylic acid] | 3.5 to 12.5 (≈ 9.82 to 35.1 µM) | 1 to 3.5 (≈ 2.81 to 9.82 µM) | < 1 | < 1 | 1 to 3.5 (≈ 2.81 to 9.82 µM) | 12.5 to 150 (≈ 35.1 to 421 µM) |  |  | 
6 | CCCc1c(-c2ccc(N(C)C)cc2)[nH]c(=O)c(C(=O)O)c1O [Cpd 9, 6-[4-(dimethylamino)phenyl]-4-hydroxy-2-oxo-5-propyl-1,2-dihydropyridine-3-carboxylic acid] | < 1 | 1 to 3.5 (≈ 3.16 to 11.1 µM) | < 1 | < 1 | < 1 | 12.5 to 150 (≈ 39.5 to 474 µM) |  |  | 
7 | CN(C)c1ccc(-c2[nH]c(=O)c(C(=O)O)cc2C(=O)O)cc1 [Cpd 11, 6-[4-(dimethylamino)phenyl]-2-oxo-1,2-dihydropyridine-3,5-dicarboxylic acid] | 12.5 to 150 (≈ 41.4 to 496 µM) | 12.5 to 150 (≈ 41.4 to 496 µM) | < 1 | 12.5 to 150 (≈ 41.4 to 496 µM) | 12.5 to 150 (≈ 41.4 to 496 µM) | 12.5 to 150 (≈ 41.4 to 496 µM) |  |  | 
8 | CN(C)c1ccc(-c2[nH]c(=O)c(C(=O)O)c(O)c2C2CC2)cc1 [Cpd 13, 5-cyclopropyl-6-[4-(dimethylamino)phenyl]-4-hydroxy-2-oxo-1,2-dihydropyridine-3-carboxylic acid] | 1 to 3.5 (≈ 3.18 to 11.1 µM) | 3.5 to 12.5 (≈ 11.1 to 39.8 µM) | < 1 | < 1 | < 1 | 12.5 to 150 (≈ 39.8 to 477 µM) |  |  | 
9 | CCc1cc(C(=O)O)c(=O)[nH]c1-c1ccc(N(C)CCOC2CCCCO2)cc1 (centres unmarked) [Cpd 16, 5-ethyl-6-(4-{methyl[2-(tetrahydro-2H-pyran-2-yloxy)ethyl]amino}phenyl)-2-oxo-1,2-dihydropyridine-3-carboxylic acid] | < 1 | 12.5 to 150 (≈ 31.2 to 375 µM) | < 1 | < 1 |  | 3.5 to 12.5 (≈ 8.74 to 31.2 µM) | 12.5 to 150 (≈ 31.2 to 375 µM) | 12.5 to 150 (≈ 31.2 to 375 µM) | 12.5 to 150 (≈ 31.2 to 375 µM)
10 | CCc1c(-c2ccc(N(C)CCO)cc2)[nH]c(=O)c(C(=O)O)c1O [Cpd 18, 5-ethyl-4-hydroxy-6-{4-[(2-hydroxyethyl)(methyl)amino]phenyl}-2-oxo-1,2-dihydropyridine-3-carboxylic acid] | < 1 | 3.5 to 12.5 (≈ 10.5 to 37.6 µM) | < 1 | < 1 |  | 3.5 to 12.5 (≈ 10.5 to 37.6 µM) | 12.5 to 150 (≈ 37.6 to 451 µM) | 12.5 to 150 (≈ 37.6 to 451 µM) | 12.5 to 150 (≈ 37.6 to 451 µM)
